{"source": "patent EP0462621A2", "about": "“Use of particular compounds for manufacture of pharmaceutical formulations for treatment against various parasites, mycoplasmas, other indications and other infections” (Prendergast, Patrick Thomas, priority 1990, dated 1991)", "key": {"Epstern-Barr Virus (EBV)": {"system": "Epstern-Barr Virus (EBV)", "test": "P3HR1 cells, EBV, immunofluorescence", "assay_type": "cell-based", "conditions": "P3HR1 cells in-vitro", "protocol": "Experiments were carried out using concentrated P3HR1 […]. […] Infection of Raji cells by infectious EBV induces early antigens (EA) in the cells in proportion to the titer of infectious virus. EA was detected using a monoclonal antibody.\nThe assay was set up with Raji cells exposed for 2 hours to serial 10 fold dilutions of the P3HR1 virus. Excess virus was separated by centrifugation and removed. Aliquots of cells infected at each dilution were distributed into 12 well trays (0.5 ml/well), and 0.5 ml of medium containing twice the desired final medium concentration was added to each well.\nAt 24 and 72 hours, aliquots of each well were washed, added to Teflon® outlined wells on a glass slide, air dried to attach then to the glass, and then fixed with acetone-methanol (50:50). Standard immunofluorescence procedures were followed to quantify the percent of cells containing virus at each time, virus dilution and drug concentration."}, "H9 cells": {"system": "H9 cells", "test": "Cytotoxicity on uninfected H9 cells, 10 days continuous exposure", "assay_type": "cell-based, human", "conditions": "read-out: ID50 - The concentration of IPA which kills 50% of the cells", "protocol": "The \"Percent Dead Cells\" are taken from Tables la(d) (iii) and la(d) (v) using the 10-day value, and the therapeutic index have been calculated for each drug concentration. The results of IPA are also graphed in Figures 16 and 17. Cytotoxicity (the dashed line) is calculated as the percent live cells.\nThe availability of toxicity data collected in the same time frame as required for determination of antiviral effectiveness allowed determination of values for two different cell lines. Figures 16 and 17 illustrate the curves obtained by plotting the cytotoxicity of IPA (as a percent of the control cell viability) versus the percent of inhibition of HIV-1 replication (as a percent of the control titer) when H9 and 81-66-45 cells were tested. The cytotoxicity data obtained with 10 days continuous exposure, using uninfected cells, were used since 10 days was the length of time required to carry out the infectivity test. As is apparent from Tables la-(d) (ii) - la(d) (v), toxicity is much lower when the drug is added to cells for one day and then removed, or when cells are exposed for only 1 or 4 days. It is difficult to mimic in-vivo exposure times, particularly if metabolites are more toxic than the parent compound and are readily cleared in-vivo but not in-vitro."}, "[1]": {"test": "Stability of IPA on storage", "assay_type": "physicochemical", "protocol": "Compounds of Formula la (IPA) have especially low toxicity for pediatrics, and acceptable toxicity of adult humans, although it is somewhat higher than for pediatrics. IPA can be stored dry almost indefinitely if protected from light and stored at -75 °C. IPA is photosensitive and deteriorates at room temperature, whether in a solid form or in aqueous or ethanolic solutions. It was found in experiments that the breakdown rate of IPA is approximately 3% per month in a dark container at room temperature.\nTwo lots of IPA (Sample 1 and Sample 2) were tested.\nInfrared spectra of IPA, taken from time to time, as described below, were used to monitor changes which may have occurred in the IPA over time. The compound was generally stored at -10° C. FT-IR data of fresh IPA are listed in the first column of Table la(m). A second FT-IR spectrum of the same compound, after storage at -10 C for 110 days, was taken and the data are listed in the second column of Table la(m). The melting point of the compound was taken at the same time. The original melting point was 128-130 C, and the second melting point, 110 days later, was 129-132 C.\nThe observed melting points compare favorably with literature melting points ranging from 126° C to 138° C."}, "HIV-I": {"system": "HIV-I", "test": "Experiment la(a): macrophage cells, HIV-I, p24 antigen capture radio-immunoassay", "assay_type": "cell-based", "conditions": "Human immunodeficiency virus 1, Monocyte; Monocytes; HIV-1; as read from Figure 15"}, "RH strain T. gondii": {"system": "RH strain T. gondii", "test": "Growth of Toxoplasma gondii in human foreskin fibroblasts, tritiated uracil incorporation", "assay_type": "cell-based", "conditions": "various concentrations; Figure 24", "protocol": "An experiment was conducted to evaluate the in-vitro effects of IPA on Toxoplasma Gondii by infecting human foreskin fibroblast monolayers (four replicates per condition) with RH strain T. gondii in the presence of various concentrations of IPA dissolved in Eagle's minimum essential medium without fetal bovine serum. After an initial four hour period of infection, the media and any T. gondii which had not entered the host cells were removed and replaced by media containing 1 u.M tritiated uracil per milliter, and incubated overnight. The mono-layers were lysed, nucleic acids precipitated by trichloroacetic acid, and the precipitates recovered on glass fiber filters. Radioactivity on the filters was measured in a Beckman scintillation spectrometer. Controls included fibroblast monolayers without T. gondii (cell control) and fibroblast monolayers infected by the same inoculum of T. gondii as the IPA treated monolayers (Tg control). The units of uracil incorporation are somewhat lower here because of the lower inoculum of T. gondii."}, "[2]": {"test": "Case study one: AIDS patient treated with IPA", "assay_type": "in vivo, human", "conditions": "IPA from February 1989", "protocol": "A case study of an AIDS patient one, was conducted. Patient one began treatment with IPA in February 1989, while in a nearly moribund condition, suffering from depression, exhaustion, bronchial infection, severe diarrhoea, severe weight loss (weight in February was 98 lbs.), complete loss of appetite and spiked fever. […] By March 21, 1989, patient one stated that they felt cured and abruptly (unilaterally) stopped taking IPA, resulting in dramatic deterioration of their condition. In May, 1989, patient one resumed IPA therapy, and experienced dramatic recovery. At the end of May, 1989, patient one again stopped taking IPA, and their condition again deteriorated. Again IPA treatment was restarted, and patient one's condition improved. In early June, 1989, patient one again stopped IPA therapy and died several weeks later.\nThe study concluded that patient one would have apparently enjoyed appreciable therapeutic benefits from IPA if they had conscientiously and continuously received IPA medication."}, "[3]": {"system": "T.b. brucei, T.b. gambiense and T.b. rhodesiense", "test": "Procyclic trypomastigote (TRY) in-vitro screen; further: key: - no/poor activity,; + fair/moderate activity,; ++ good/excellent activity", "assay_type": "cell-based", "protocol": "Primary screening for new trypanocides has made extensive use of rodent systems, in which host survival time is a simple indicator of drug activity. In-vitro screens have used a variety of trypomastigote types (see Table 3, below). […] Most early in-vitro screens employed a short test in which bloodstream trypomastigotes were isolated from an infected rodent and maintained for up to 24 h in a simple drug-containing media. Two significant modifications of this technique include maintaining isolated bloodstream trypomastigotes in drug-containing media for 3-4 hours at 37° C in micro-titre plates and their subsequent viability assessed by the uptake of radiolabelled precursors or motility and infectivity to mice.\nIn-vitro and in-vivo models were used to test activities of a selection of many compounds. Those activities are summarized in Tables 1-3, showing variation between systems and species. Activities measured in the MP mo and HM mo models have shown the best correlation with results obtained in hamster and mouse models."}}}
{"smiles": "CC(C)=CCNc1ncnc2c1ncn2[C@@H]1O[C@H](CO)[C@@H](O)[C@H]1O", "note": "[IPA, N^6-(Δ^2-isopentenyl) adenosine]", "values": [{"measurement": "levels of Epstern-Barr Virus (EBV)", "setting": "Epstern-Barr Virus (EBV)", "value": "reduces"}, {"measurement": "CC50", "setting": "H9 cells", "value": 50, "unit": "µM"}, {"measurement": "change in the compound on storage", "setting": "[1]; Sample 1, tests over four months", "value": "no change in the compound"}, {"measurement": "breakdown rate", "setting": "[1]; dark container at room temperature", "value": "approximately 3 % per month"}, {"measurement": "change in the FT-IR spectrum on storage", "setting": "[1]; storage at -10 C for 110 days", "value": "little change in the FT-IR spectrum"}, {"measurement": "IC50", "setting": "HIV-I", "value": 6, "unit": "µM"}, {"measurement": "IC90", "setting": "HIV-I", "value": 10, "unit": "µM"}, {"measurement": "effect on the growth of T. gondii", "setting": "RH strain T. gondii", "value": "inhibitory effect"}, {"measurement": "T and B lymphocyte competence", "setting": "[2]", "value": "major rapid recovery"}, {"measurement": "activity, procyclic TRY", "setting": "[3]", "value": "+"}]}
